Measurements from US11193932B2, “4,4-disubstituted cyclohexyl bridged heptamethine cyanine dyes and uses thereof” (VisEn Medical, Inc., priority 2013, dated 2021).

How the values were obtained:
[1] = Absorbance of the dyes (absorption maximum, extinction coefficient); format: physicochemical
[2] = Fluorescence emission maximum of the dyes; format: physicochemical

Compound	Abs. max ([1]; in water) [nm]	Abs. max ([1]; in water/1× PBS) [nm]	Em. Max ([2]; in water/1× PBS) [nm]	further results
CCOC(=O)C1(C(=O)O)CC(/C=C/C2=[N+](CCCS(=O)(=O)[O-])c3ccc(S(=O)(=O)O)cc3C2(C)C)=CC(=C/C=C2/N(CCCS(=O)(=O)O)c3ccc(S(=O)(=O)O)cc3C2(C)C)/C1 (stereo not drawn) [Compound 1b]				% absorption of the dye at 278 nm with respect to its abs. at λmax, 750 nm [1]: 4%; Abs ([1]; 1x PBS): 749 nm; ε (extinction coefficient of the dye) ([1]; 1x PBS, in M-1 cm-1 (unit assumed)): 240,000; Em ([2]; 1x PBS): 771 nm
CCOC(=O)C1(C(=O)NCCS(=O)(=O)O)CC(/C=C/C2=[N+](CCCS(=O)(=O)[O-])c3ccc(S(=O)(=O)O)cc3C2(C)C)=CC(=C/C=C2/N(CCCS(=O)(=O)O)c3ccc(S(=O)(=O)O)cc3C2(C)C)/C1 (stereo not drawn) [Compound 1c]	749			

The next lines start with results.

Abs. max ([1]; in water) [nm]	Abs. max ([1]; in water/1× PBS) [nm]	Em. Max ([2]; in water/1× PBS) [nm]	Compound	further results
	751	771	CC1(C)C(/C=C/C2=CC(=C/C=C3/N(CCCS(=O)(=O)O)c4ccc(S(=O)(=O)O)cc4C3(C)C)/CC(C(=O)O)(C(=O)NCCS(=O)(=O)O)C2)=[N+](CCCS(=O)(=O)[O-])c2ccc(S(=O)(=O)O)cc21 (stereo not drawn) [Compound 1d]	
	751	771	CC1(C)C(/C=C/C2=CC(=C/C=C3/N(CCCS(=O)(=O)O)c4ccc(S(=O)(=O)O)cc4C3(C)C)/CC(C(=O)NCCCCCC(=O)O)(C(=O)NCCS(=O)(=O)O)C2)=[N+](CCCS(=O)(=O)[O-])c2ccc(S(=O)(=O)O)cc21 (stereo not drawn) [Compound 1f]	
775			CCN1/C(=C/C=C2C=C(/C=C/C3=[N+](CC)c4ccc5c(S(=O)(=O)[O-])cc(S(=O)(=O)O)cc5c4C3(C)C)CC(C(=O)NCCCCCC(=O)O)(C(=O)NCCS(=O)(=O)O)C/2)C(C)(C)c2c1ccc1c(S(=O)(=O)O)cc(S(=O)(=O)O)cc21 (stereo not drawn) [Compound 4m]	Abs. max ([1]; MeOH): 780 nm; Em. Max ([2]; water): 795 nm
